Columns and labels:
Human M2 = molecular target: T1, Human M2 (Homo sapiens, UniProt P08172); assay: analogous cell-based functional assay using human M2
T1 sequence (P08172 1-466): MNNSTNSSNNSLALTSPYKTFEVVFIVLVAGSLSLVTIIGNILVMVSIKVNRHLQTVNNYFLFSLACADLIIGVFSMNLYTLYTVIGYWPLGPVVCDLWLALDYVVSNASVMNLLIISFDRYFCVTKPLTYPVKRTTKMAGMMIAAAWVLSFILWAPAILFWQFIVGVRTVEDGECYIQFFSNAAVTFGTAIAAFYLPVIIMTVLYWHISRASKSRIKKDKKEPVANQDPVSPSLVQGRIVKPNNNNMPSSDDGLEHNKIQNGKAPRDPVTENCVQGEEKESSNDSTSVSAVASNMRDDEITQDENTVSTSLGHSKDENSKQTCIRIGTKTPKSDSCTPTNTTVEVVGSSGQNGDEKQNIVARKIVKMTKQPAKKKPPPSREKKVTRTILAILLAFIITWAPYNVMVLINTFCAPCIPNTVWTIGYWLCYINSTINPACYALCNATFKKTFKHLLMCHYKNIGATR

[1] = tested on: amphetamine-induced hyperlocomotion; assay: amphetamine-induced hyperlocomotion in rats; format: in vivo, male Sprague-Dawley rats; conditions: for percent reversal of amphetamine-induced hyperlocomotion: rat, 1 mg/kg amphetamine s.c.
Protocol: d-Amphetamine hemisulfate was obtained from Sigma (St. Louis, Mo.). Salt-correction was used to determine the correct amount of the d-amphetamine hemisulfate form in milligrams to add to sterile water in order to yield a […] solution, which would be dosed at 1 mL/kg body weight of each animal. […] The solutions were formulated so that animals were injected with a volume equal to 10 mL/kg body weight for all compounds. The appropriate amount according to the dosage was mixed in 10% Tween 80 (Sigma) in sterile water. The mixtures were then vortexed and stored in a 39° C. sonication bath for 1 hour, until in a microsuspension (except for the highest dose, which was a suspension).
Male Sprague-Dawley rats weighing 239-300 grams and averaging 265 g (Harlan, Inc., Indianapolis, Ind.) were used. They were housed in the animal care facility certified by the American Association for the Accreditation of Laboratory Animal Care (AALAC) under a 12-hour light/dark cycle (lights on: 6 a.m.; lights off: 6 p.m.) and had free access to food and water. The animals used in this experiment were food-deprived the evening before experimentation for oral dosing of compound/vehicle. The experimental protocols performed during the light cycle were approved by the Institutional Animals Care and Use Committee of Vanderbilt University and conformed to the guidelines established by the National Research Council Guide for the Care and Use of Laboratory Animals.
Male Harlan Sprague Dawley rats were habituated in Smart Open Field locomotor activity test chambers (Hamilton-Kinder, San Diego, Calif.) with 16×16 photo beams to automatically record locomotor activity. […] They were monitored for an additional 30 minutes and then injected subcutaneously with vehicle or 1 mg/kg amphetamine. Animals were then monitored for an additional 60 minutes, for a total of 120 minutes. Data were expressed as changes in ambulation defined as total number of beam breaks per 5 minute interval. Terminal brain and plasma samples were collected at the end of the study for pharmacokinetic analysis.
Behavioral data were analyzed using a two-way ANOVA with main effects of treatment and time. Post hoc analysis was performed using a Dunnett's t-test with all treatment groups compared to the VAMP group using GraphPad Prism V.5.04 (GraphPad Software, San Diego, Calif.). Data were graphed using GraphPad Prism V.5.04 (GraphPad Software, San Diego, Calif.). A probability of p<0.05 was taken as the level of statistical significance. In addition, the total number of beam breaks from the amphetamine administration (65 min) to the end of the study (120 min) was calculated and graphed. Percent Reversal was calculated as follows using Microsoft Excel: In each animal, total ambulation from t=65 to t=120 was summed. The mean of each sum was calculated in the VAMP group. Then, for each animal, Percent Reversal was calculated with the following formula: Percent Reversal=100−{[(total ambulation in each animal from t=65 to t=120)/(mean of each sum from t=65 to t=120 in VAMP group)]*100}. The mean Percent Reversal, as well as the standard error, was calculated for each dose group using GraphPad Prism V5.04.

[2] = intrinsic clearance, cyno; format: in vitro ADME; conditions: cynomolgus monkey
Protocol: Compound 76 was in several in vitro assays to investigate both metabolism and pharmacokinetics. These assays were performed according to known methods as generally described in the following references: Conde-Ceide et al. ACS Med. Chem. Lett. 2015, 6, 716-720; Morris et al. J. Med. Chem. 2014, 57, 10192-10197; and Bubser et al. ACS Chem. Neurosci. 2014, 5, 920-942.

human mAChR M4 = molecular target: T2, human mAChR M4 (Homo sapiens, UniProt P08173); assay: mAChR M4 cell-based functional assay (calcium flux), human M4; conditions: Human M4; % ACh maximum at 30 μM
T2 sequence (P08173 1-479): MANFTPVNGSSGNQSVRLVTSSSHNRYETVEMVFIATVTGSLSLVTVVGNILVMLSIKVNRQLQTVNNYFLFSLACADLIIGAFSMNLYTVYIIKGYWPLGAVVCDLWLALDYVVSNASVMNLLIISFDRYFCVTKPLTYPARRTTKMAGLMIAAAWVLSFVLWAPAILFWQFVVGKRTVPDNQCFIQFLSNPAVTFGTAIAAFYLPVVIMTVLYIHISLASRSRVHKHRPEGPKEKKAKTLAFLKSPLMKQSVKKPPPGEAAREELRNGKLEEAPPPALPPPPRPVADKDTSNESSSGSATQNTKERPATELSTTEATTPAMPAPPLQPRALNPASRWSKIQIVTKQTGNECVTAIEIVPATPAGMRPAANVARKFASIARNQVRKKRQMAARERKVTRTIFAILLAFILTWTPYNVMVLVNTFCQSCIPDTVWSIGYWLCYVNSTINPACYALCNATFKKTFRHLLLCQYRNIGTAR

What does the source list for `Cc1nnc2sc3c(NCc4ccc(C(C)(C)O)cc4)ncnc3c2c1C` [Compound 76, 2-[4-[[(3,4-Dimethylpyrimido[4′,5′:4,5]thieno[2,3-c]pyridazin-8-yl)amino]methyl]phenyl]propan-2-ol]?
Emax (Human M2; Human M2): 48%; EC50 (Human M2; analogous assay using human M2): 2800 nM; percent reversal of amphetamine-induced hyperlocomotion ([1]; 0.1 mg/kg p.o.): 8.1%; percent reversal of amphetamine-induced hyperlocomotion ([1]; 0.3 mg/kg p.o.): 32.8%; percent reversal of amphetamine-induced hyperlocomotion ([1]; 1 mg/kg p.o.): 50.7%; percent reversal of amphetamine-induced hyperlocomotion ([1]; 3 mg/kg p.o.): 44.3%; percent reversal of amphetamine-induced hyperlocomotion ([1]; 10 mg/kg p.o.): 62.8%; percent reversal of amphetamine-induced hyperlocomotion ([1]; […] p.o.): 25.6%; reversal of amphetamine-induced hyperlocomotion (in words) ([1]; systemic administration, similar extent as VU0467154 at 10 mg/kg p.o.): significant and sustained reversal; CLint scaled [2]: 102 mL/min/kg; Emax (human mAChR M4): 86%

Source: patent US10239887B2, “Positive allosteric modulators of the muscarinic acetylcholine receptor M4” (Vanderbilt University, priority 2016, dated 2019)
